Where a name gives a salt, the structure may show the parent alone.
Assays:
[1] = target: Bcl-2 protein (histag-Bcl-2, UniProtKB P10415) (Homo sapiens (Human), UniProt P10415); experiment: Inhibition of Bcl-2 by the fluorescence polarisation technique; assay type: binding; details: incubation for 2 hours, read-out: IC50 (nM) Bcl-2 FP
Procedure, shortened: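 In pH 7.4 buffer (Hepes 10 mM, NaCl 150 mM, Tween20 0.05%), test compounds at increasing concentrations competed with a fluorescein peptide (1.00×10^−8 M final) for histag-Bcl-2 (2.50×10^−8 M final). Readout was fluorescence polarisation after a 2 h incubation.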

[2] = test system: RS4;11 leukaemia tumour line; experiment: In vitro cytotoxicity (Microculture Tetrazolium Assay); assay type: cell-based; details: Homo sapiens, RS4-11, 48 h, RS4;11 cells, exposed for 48 hours, cell viability; read-out: IC50 (nM) MTT RS4;11
Procedure: The cytotoxicity studies were carried out on the RS4;11 leukaemia tumour line.
The cells are distributed onto microplates and exposed to the test compounds for 48 hours.
The cell viability is then quantified by a colorimetric assay, the Microculture Tetrazolium Assay (Cancer Res., 1987, 47, 939-942).

[3] = test system: cleaved (activated) form of caspase 3 in RS4;11 leukaemia cell xenograft tumours; experiment: Quantification of the cleaved form of caspase 3 in vivo (MSD ELISA); parameters: species or system mice (SCID strain); details: Mus musculus, cleaved caspase 3 MSD test, oral route, tumour removed after 2 hours, read-out: Activation factor ± SEM (versus control)
Procedure: The ability of the compounds of the invention to activate caspase 3 is evaluated in a xenograft model of RS4;11 leukaemia cells.
1×10^7 RS4;11 cells are grafted sub-cutaneously into immunosuppressed mice (SCID strain). 25 to 30 days after the graft, the animals are treated orally with the various compounds. After treatment, the tumour masses are recovered and lysed, and the cleaved (activated) form of caspase 3 is quantified in the tumour lysates.
The quantification is carried out using the “Meso Scale Discovery (MSD) ELISA platform” test, which specifically assays the cleaved form of caspase 3. It is expressed in the form of an activation factor corresponding to the ratio between the quantity of cleaved caspase 3 in the treated mice divided by the quantity of cleaved caspase 3 in the control mice.

Chain of Bcl-2 protein (P10415 whole entry): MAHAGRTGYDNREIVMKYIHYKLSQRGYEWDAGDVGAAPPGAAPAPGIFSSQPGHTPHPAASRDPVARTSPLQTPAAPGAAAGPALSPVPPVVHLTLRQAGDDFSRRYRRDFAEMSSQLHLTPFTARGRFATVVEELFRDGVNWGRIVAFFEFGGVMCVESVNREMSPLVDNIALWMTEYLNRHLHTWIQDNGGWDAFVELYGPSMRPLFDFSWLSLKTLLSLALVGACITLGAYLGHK

IC50 [1]	SMILES	IC50 [2]	fold induction at 25 mg/kg [3]
4 nM	Cc1c(C(=O)N(c2ccc(O)cc2)c2cnn(C)c2)cc(-c2cc(Cl)ccc2C(=O)N2Cc3ccccc3C[C@H]2CN2CCOCC2)n1C [Example 25, 5-(5-Chloro-2-{[(3S)-3-(morpholin-4-ylmethyl)-3,4-dihydroisoquinolin-2(1H)-yl]carbonyl}phenyl)-N-(4-hydroxyphenyl)-1,2-dimethyl-N-(1-methyl-1H-pyrazol-4-yl)-1H-pyrrole-3-carboxamide hydrochloride]	33.3 nM	45.7 ± 2
20 nM	Cc1c(C(=O)N(c2ccc(O)cc2)c2cnn(C)c2)cc(-c2ccc(F)cc2C(=O)N2Cc3ccccc3C[C@H]2CN2CCOCC2)n1C [Example 447, 5-(4-Fluoro-2-{[(3S)-3-(morpholin-4-ylmethyl)-3,4-dihydroisoquinolin-2(1H)-yl]carbonyl}phenyl)-N-(4-hydroxyphenyl)-1,2-dimethyl-N-(1-methyl-1H-pyrazol-4-yl)-1H-pyrrole-3-carboxamide hydrochloride]	> 600 nM	
2.4 nM	Cl.[2H]C([2H])([2H])n1cc(N(C(=O)c2cc(-c3cc(Cl)ccc3C(=O)N3Cc4ccccc4C[C@H]3CN3CCOCC3)n(C)c2C)c2ccc(O)cc2)cc1C#N [Example 448, 5-(5-Chloro-2-{[(3S)-3-(morpholin-4-ylmethyl)-3,4-dihydroisoquinolin-2(1H)-yl]carbonyl}phenyl)-N-[5-cyano-1-(trideuteriomethyl)-1H-pyrrol-3-yl]-N-(4-hydroxyphenyl)-1,2-dimethyl-1H-pyrrole-3-carboxamide hydrochloride]	12.1 nM	
2.7 nM	Cc1c(C(=O)N(c2ccc(O)cc2)c2cc(C#N)nn2C)cc(-c2cc(Cl)ccc2C(=O)N2Cc3ccccc3C[C@H]2CN2CCOCC2)n1C [Example 450, 5-(5-Chloro-2-{[(3S)-3-(morpholin-4-ylmethyl)-3,4-dihydroisoquinolin-2(1H)-yl]carbonyl}phenyl)-N-(3-cyano-1-methyl-1H-pyrazol-5-yl)-N-(4-hydroxyphenyl)-1,2-dimethyl-1H-pyrrole-3-carboxamide hydrochloride]	53.2 nM	
2.9 nM	Cc1c(C(=O)N(c2ccc(O)cc2)c2cnc3c(cnn3C)c2)cc(-c2cc(F)ccc2C(=O)N2Cc3ccccc3C[C@H]2CN2CCOCC2)n1C [Example 451, 5-(5-Fluoro-2-{[(3S)-3-(morpholin-4-ylmethyl)-3,4-dihydroisoquinolin-2(1H)-yl]carbonyl}phenyl)-N-(4-hydroxyphenyl)-1,2-dimethyl-N-(1-methyl-1H-pyrazolo[3,4-b]pyridin-5-yl)-1H-pyrrole-3-carboxamide hydrochloride]	102 nM	
8.3 nM	Cc1nn(C)cc1N(C(=O)c1cc(-c2cc(F)ccc2C(=O)N2Cc3ccccc3C[C@H]2CN2CCOCC2)n(C)c1C)c1ccc(O)cc1 [Example 452, N-(1,3-Dimethyl-1H-pyrazol-4-yl)-5-(5-fluoro-2-{[(3S)-3-(morpholin-4-ylmethyl)-3,4-dihydroisoquinolin-2(1H)-yl]carbonyl}phenyl)-N-(4-hydroxyphenyl)-1,2-dimethyl-1H-pyrrole-3-carboxamide hydrochloride]	112 nM	
6.9 nM	Cc1c(N(C(=O)c2cc(-c3cc(F)ccc3C(=O)N3Cc4ccccc4C[C@H]3CN3CCOCC3)n(C)c2C)c2ccc(O)cc2)cnn1C [Example 453, N-(1,5-Dimethyl-1H-pyrazol-4-yl)-5-(5-fluoro-2-{[(3S)-3-(morpholin-4-ylmethyl)-3,4-dihydroisoquinolin-2(1H)-yl]carbonyl}phenyl)-N-(4-hydroxyphenyl)-1,2-dimethyl-1H-pyrrole-3-carboxamide hydrochloride]	99.9 nM	
6.5 nM	Cc1c(N(C(=O)c2cc(-c3cc(Cl)ccc3C(=O)N3Cc4ccccc4CC3C(F)(F)F)n(C)c2C)c2ccc(O)cc2)cc(C#N)n1C (centres unmarked) [Example 454, 5-(5-Chloro-2-{[3-(trifluoromethyl)-3,4-dihydroisoquinolin-2(1H)-yl]carbonyl}phenyl)-N-(5-cyano-1,2-dimethyl-1H-pyrrol-3-yl)-N-(4-hydroxyphenyl)-1,2-dimethyl-1H-pyrrole-3-carboxamide]	158 nM	
1.9 nM	Cc1c(C(=O)N(c2ccc(O)cc2)c2cc(C#N)n(CCN3CCOCC3)c2C)cc(-c2cc(Cl)ccc2C(=O)N2Cc3ccccc3C[C@H]2C)n1C [Example 455, 5-(5-Chloro-2-{[(3R)-3-methyl-3,4-dihydroisoquinolin-2(1H)-yl]-carbonyl}phenyl)-N-{5-cyano-2-methyl-1-[2-(morpholin-4-yl)ethyl]-1H-pyrrol-3-yl}-N-(4-hydroxyphenyl)-1,2-dimethyl-1H-pyrrole-3-carboxamide hydrochloride]	11.8 nM	
2.7 nM	Cc1c(C(=O)N(c2ccc(O)cc2)c2cnc(OCCN3CCOCC3)nc2)cc(-c2cc(Cl)ccc2C(=O)N2Cc3ccccc3C[C@H]2C)n1C [Example 456, 5-(5-Chloro-2-{[(3R)-3-methyl-3,4-dihydroisoquinolin-2(1H)-yl]-carbonyl}phenyl)-N-(4-hydroxyphenyl)-1,2-dimethyl-N-{2-[2-(morpholin-4-yl)-ethoxy]pyrimidin-5-yl}-1H-pyrrole-3-carboxamide hydrochloride]	80.6 nM	
10.5 nM	Cc1c(N(C(=O)c2cc(-c3cc(Cl)ccc3C(=O)N3Cc4ccccc4C[C@H]3CN3CCOCC3)n(C)c2C)c2ccc(O)cc2)cn(C)c1C#N [Example 458, 5-(5-Chloro-2-{[(3S)-3-(morpholin-4-ylmethyl)-3,4-dihydroisoquinolin-2(1H)-yl]carbonyl}phenyl)-N-(5-cyano-1,4-dimethyl-1H-pyrrol-3-yl)-N-(4-hydroxyphenyl)-1,2-dimethyl-1H-pyrrole-3-carboxamide hydrochloride]	197 nM	
2.5 nM	CCn1c(C#N)cc(N(C(=O)c2cc(-c3cc(Cl)ccc3C(=O)N3Cc4ccccc4C[C@H]3CN3CCOCC3)n(C)c2C)c2ccc(O)cc2)c1C [Example 459, 5-(5-Chloro-2-{[(3S)-3-(morpholin-4-ylmethyl)-3,4-dihydroisoquinolin-2(1H)-yl]carbonyl}phenyl)-N-(5-cyano-1-ethyl-2-methyl-1H-pyrrol-3-yl)-N-(4-hydroxyphenyl)-1,2-dimethyl-1H-pyrrole-3-carboxamide hydrochloride]	5.93 nM	
2.8 nM	Cc1c(C(=O)N(c2ccc(O)cc2)c2cnn(C3CCOC3)c2)cc(-c2cc(Cl)ccc2C(=O)N2Cc3ccccc3C[C@H]2CCCN2CCOCC2)n1C (stereo partly drawn) [Example 460, 5-(5-Chloro-2-{[(3R)-3-[3-(morpholin-4-yl)propyl]-3,4-dihydroisoquinolin-2(1H)-yl]carbonyl}phenyl)-N-(4-hydroxyphenyl)-1,2-dimethyl-N-[1-(tetrahydrofuran-3-yl)-1H-pyrazol-4-yl]-1H-pyrrole-3-carboxamide hydrochloride]	22.9 nM	
3.1 nM	Cc1c(N(C(=O)c2cc(-c3cc(Cl)ccc3C(=O)N3Cc4ccccc4C[C@H]3CCCN3CCOCC3)n(C)c2C)c2ccccc2)cc(C#N)n1C [Example 461, 5-(5-Chloro-2-{[(3R)-3-[3-(morpholin-4-yl)propyl]-3,4-dihydroisoquinolin-2(1H)-yl]carbonyl}phenyl)-N-(5-cyano-1,2-dimethyl-1H-pyrrol-3-yl)-1,2-dimethyl-N-phenyl-1H-pyrrole-3-carboxamide hydrochloride]	18.6 nM	
13.3 nM	Cc1cc(N(C(=O)c2cc(-c3cc(Cl)ccc3C(=O)N3Cc4ccccc4C[C@H]3CN3CCOCC3)n(C)c2C)c2ccc(O)cc2)no1 [Example 462, 5-(5-Chloro-2-{[(3S)-3-(morpholin-4-ylmethyl)-3,4-dihydroisoquinolin-2(1H)-yl]carbonyl}phenyl)-N-(4-hydroxyphenyl)-1,2-dimethyl-N-(5-methyl-1,2-oxazol-3-yl)-1H-pyrrole-3-carboxamide]	368 nM	
36.6 nM	Cc1c(C(=O)N(c2cnc3c(ccn3C)c2)c2ccc(O)cn2)cc(-c2cc(Cl)ccc2C(=O)N2Cc3ccccc3C[C@H]2CN2CCOCC2)n1C [Example 464, 5-(5-Chloro-2-{[(3S)-3-(morpholin-4-ylmethyl)-3,4-dihydroisoquinolin-2(1H)-yl]carbonyl}phenyl)-N-(5-hydroxypyridin-2-yl)-1,2-dimethyl-N-(1-methyl-1H-pyrrolo[2,3-b]pyridin-5-yl)-1H-pyrrole-3-carboxamide dihydrochloride]	723 nM	
19.2 nM	Cc1c(C(=O)N(c2ccccc2)c2ccc(O)cc2)cc(-c2cc(Cl)ccc2C(=O)N2CCc3ccccc3C2)n1C [Example 467, 5-(5-Chloro-2-{[3,4-dihydroisoquinolin-2(1H)-yl]carbonyl}phenyl)-N-(4-hydroxyphenyl)-1,2-dimethyl-N-phenyl-1H-pyrrole-3-carboxamide]	188 nM	

Reference: patent publication US9108983B2, “Pyrrole compounds, a process for their preparation and pharmaceutical compositions containing them” (LES LABORATOIRES SERVIER, priority 2013, dated 2015)
